According to paper PMC4588578, “Targeting substrate-site in Jak2 kinase prevents emergence of genetic resistance” (Scientific Reports, 2015):
Like-named read-outs stand apart in the source and are kept apart here.

Columns and labels:
[1] = system: BaF3 cells expressing JAK2-V617F/L983F; assay: BaF3 cell proliferation dose-response; assay type: cell-based; conditions: variant L983F in JAK2-V617F
[2] = system: BaF3 cells expressing ruxolitinib-resistant JAK2-V617F variants; assay: Dose-response analyses with ruxolitinib-resistant variants; assay type: cell-based; conditions: with or without IL-3
Experimental: Ba/F3 cells expressing mutant BCR-ABL proteins were plated in 96-well plates (0.5–1 × 10^4 cell per well) in RPMI medium containing 10% FCS and lacking IL-3. Kinase inhibitors were included in the media at varying concentrations. After 60 hours, the number of viable cells was assessed using WST-1 reagent (Roche Applied Science, USA), according to the manufacturer’s specifications. Assays were performed in quadruplicate.

JAK2 kinase domain E930G = target: T1, JAK2 kinase domain E930G (Mus musculus, UniProt Q62120, E930G); assay: Dose response of purified kinase domain; assay type: biochemical
T1 construct: made in house; host or cells: Spodoptera frugiperda Sf9 (baculovirus)
Experimental: (§1) Proteins were expressed in Spodoptera frugiperda, Sf9 cells. […] Each point mutants was confirmed by sequence analysis. […] All purification steps were carried out at 4 °C.

JAK2 kinase domain L983F = target: T2, JAK2 kinase domain L983F (Mus musculus, UniProt Q62120, L983F); assay: Dose response of purified kinase domain; assay type: biochemical
T2 construct: made in house; host or cells: Spodoptera frugiperda Sf9 (baculovirus)
Experimental: as §1

[3] = system: BaF3 cells expressing JAK2-V617F/Y931C/L1026F; assay: BaF3 cell proliferation dose-response; assay type: cell-based; conditions: Mus musculus, BaF3, read-out: IC50, cell proliferation
[4] = system: BaF3 cells transduced with randomly mutagenized JAK2-V617F; assay: In vitro drug-resistance screen, random mutagenesis; assay type: cell-based; conditions: ruxolitinib at 1, 2 and 5 μM; fedratinib at 2-fold above IC50
Experimental: To generate random mutation library of Jak2-V617F, E. coli XL1-red cells were transformed with one μg of JAK2-V617F plasmid DNA. More specifically, 50–100 ng of DNA (more than 100 ng of DNA decreases transformation efficiency) was mixed with 100 μl of competent cells in a pre-chilled polypropylene tube and incubated on ice for 30 min, gently swirling every 5 min. For a good library, four to six tubes of competent cells are used. Cells from each tube were plated on four 10 cm LB-agar plates containing 100-μg/ml ampicillin. Plates were incubated at 37 °C for 18–24 hours. When colonies became visible (18–24 hrs), cells were pooled from each plates and plasmid DNA was isolated using the Qiagen’s midiprep kit. At this stage, the heterogeneity of mutations in the library can be roughly assessed by restriction digestion with a frequent cutter such as Sau3A1 or Taq1 or sequencing.
To select resistant clones of JAK2-V617F, high titer retroviruses were produced as describe. One hundred million native BAF3 cells were transduced with 100 ml of virus supernatants having a viral titer of 0.5–1 × 10^6. […] We observed that the overexpression of EPOR or MPL tend to loose dependence on Jak2 resulting to emergence of false-positives[58]. More specifically, 100 × 10^6 cells were mixed with 100 ml of virus supernatant and 100 ml of RPMI, containing 10% serum and 24 μg/ml of polyberene. […]

[5] = system: BaF3 cells expressing JAK2-V617F/Y931C/F1061W; assay: BaF3 cell proliferation dose-response; assay type: cell-based; conditions: Mus musculus, BaF3, read-out: IC50, cell proliferation
[6] = system: BaF3 cells expressing JAK2-V617F; assay: cells; conditions: Mus musculus, BaF3, read-out: IC50, cell proliferation, BaF3 JAK2-V617F
[7] = system: BaF3 cells expressing JAK2-V617F/Y931C/S1025C; assay: BaF3 cell proliferation dose-response; assay type: cell-based; conditions: Mus musculus, BaF3, read-out: IC50, cell proliferation
[8] = system: TEL-JAK3-expressing BaF3 cells; assay: Soft-agar colony assay; assay type: cell-based
[9] = system: BaF3 cells expressing JAK2-V617F; assay: Soft-agar colony assay; assay type: cell-based
[10] = system: BaF3 cells expressing TEL-JAK2; assay: BaF3 cell proliferation dose-response; assay type: cell-based; conditions: receptor-free fully activated JAK2 (TEL-JAK2); data not shown
Experimental: (§2) Assays were performed in quadruplicate.

[11] = system: TEL-JAK1-expressing BaF3 cells; assay: Soft-agar colony assay; assay type: cell-based
[12] = system: phospho-STAT5 in JAK3-transduced cells; assay: Phospho-STAT5 inhibition in transduced BaF3 cells; assay type: cell-based; conditions: Mus musculus
[13] = system: BaF3 cells expressing JAK2-V617F/Y931C/Y1045*; assay: BaF3 cell proliferation dose-response; assay type: cell-based; conditions: Mus musculus, BaF3, read-out: IC50, cell proliferation
[14] = system: BaF3 cells expressing JAK2-V617F/Y931C/Y1045W; assay: BaF3 cell proliferation dose-response; assay type: cell-based; conditions: Mus musculus, BaF3, read-out: IC50, cell proliferation
[15] = system: BaF3 cells expressing JAK2-V617F/Y931C/F1019L; assay: BaF3 cell proliferation dose-response; assay type: cell-based; conditions: Mus musculus, BaF3, read-out: IC50, cell proliferation
[16] = system: phospho-STAT5 in BaF3 cells expressing JAK2-V617 variant L983F; assay: Immunoblot analysis of phospho-STAT5; assay type: cell-based
[17] = system: BaF3 cells expressing JAK2-V617F/Y931C/W1038C; assay: BaF3 cell proliferation dose-response; assay type: cell-based; conditions: Mus musculus, BaF3, read-out: IC50, cell proliferation
[18] = system: BaF3 cells expressing JAK2-V617F/Y931C/V1075F; assay: BaF3 cell proliferation dose-response; assay type: cell-based; conditions: Mus musculus, BaF3, read-out: IC50, cell proliferation
[19] = system: BaF3 cells expressing JAK2-V617F; conditions: read-out: IC50, cell proliferation
[20] = system: BaF3 cells expressing JAK2-V617F/Y931C/I1018F; assay: BaF3 cell proliferation dose-response; assay type: cell-based; conditions: Mus musculus, BaF3, read-out: IC50, cell proliferation
[21] = system: BaF3 cells expressing JAK2-V617F/Y931C/W1020C; assay: BaF3 cell proliferation dose-response; assay type: cell-based; conditions: Mus musculus, BaF3, read-out: IC50, cell proliferation
[22] = system: BaF3 cells expressing JAK2-V617F/Y931C/S1039F; assay: BaF3 cell proliferation dose-response; assay type: cell-based; conditions: Mus musculus, BaF3, read-out: IC50, cell proliferation
[23] = system: phospho-STAT5 in JAK1-transduced cells; assay: Phospho-STAT5 inhibition in transduced BaF3 cells; assay type: cell-based; conditions: Mus musculus
Experimental: as §2

[24] = system: BaF3 cells expressing luciferase and JAK2-V617F; assay: In vivo efficacy, leukemic burden by bioluminescence; conditions: 100 mg/kg twice daily, IP, two weeks
[25] = design: method as in PMID 21257798; conditions: at 100 mg/kg; cited from earlier work
[26] = system: BaF3 cells expressing luciferase and JAK2-V617F/L983F; assay: In vivo efficacy, leukemic burden by bioluminescence; conditions: 100 mg/kg twice daily, IP, two weeks

T1 sequence (Q62120 849-1124 E930G limits assumed): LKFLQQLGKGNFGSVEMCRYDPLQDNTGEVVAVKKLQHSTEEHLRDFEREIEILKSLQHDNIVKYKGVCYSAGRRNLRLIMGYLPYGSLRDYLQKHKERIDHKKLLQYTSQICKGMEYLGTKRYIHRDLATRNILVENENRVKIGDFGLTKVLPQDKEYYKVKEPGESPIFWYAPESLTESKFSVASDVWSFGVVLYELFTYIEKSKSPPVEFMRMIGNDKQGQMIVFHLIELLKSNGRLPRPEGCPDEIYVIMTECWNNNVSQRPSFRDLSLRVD
T2 sequence (Q62120 849-1124 L983F limits assumed): as the sequence (Q62120 849-1124 E930G limits assumed) above, with G82E, L135F counted along it

With `Cc1cc(Nc2nc(N[C@@H](C)c3ncc(F)cn3)ncc2Cl)n[nH]1` [AZD1480] the “resistance or sensitivity of variant L983F” value [1] was “resistance” and the “resistance of ruxolitinib-resistant variants” value [2] was “cross-resistance”.

For `N#CCNC(=O)c1ccc(-c2ccnc(Nc3ccc(N4CCOCC4)cc3)n2)cc1` [CYT-387], the “resistance or sensitivity of variant L983F” value [1] was “full sensitivity”, the “resistance or sensitivity of purified kinase domain” value (JAK2 kinase domain E930G) was “sensitive” and the “resistance or sensitivity of purified kinase domain” value (JAK2 kinase domain L983F) was “sensitive”. For the same compound, the “resistance of ruxolitinib-resistant variants” value [2] was “cross-resistance”.

With `Cc1cnc(Nc2ccc(OCCN3CCCC3)cc2)nc1Nc1cccc(S(=O)(=O)NC(C)(C)C)c1` [fedratinib] the IC50 [3] was 1690 nM, the “emergence of resistant clones” value [4] was “did not result in any resistant clones” and the IC50 [5] was 1980 nM. For the same compound, the IC50 [6] was 1070 nM, the IC50 [7] was 2310 nM and the “concentration up to which colony growth is supported” value [8] was 4 µM. The “concentration above which cells failed to grow” value [9] was 3 µM, the “increase in hypersensitivity of TEL-JAK2 in comparison to JAK2-V617F” value [10] was ~ 3 fold and the “concentration up to which colony growth is supported” value [11] was 6 µM. The IC50 [12] was > 5 µM, the IC50 [13] was 1680 nM and the IC50 [14] was 2110 nM. The IC50 [15] was 1030 nM, the “phospho-STAT5 inhibition (immunoblot)” value [16] was “dose-dependent inhibition” and the IC50 [17] was 1580 nM. The IC50 [18] was 2250 nM, the IC50 [19] was ~900 nM and the IC50 [20] was 1490 nM. For the same compound, the IC50 [21] was 1010 nM, the IC50 [22] was 1640 nM and the IC50 [23] was > 10 µM. The “resistance of ruxolitinib-resistant variants” value [2] was “complete lack of resistance”.

With `C[C@]12O[C@H](C[C@]1(O)CO)n1c3ccccc3c3c4c(c5c6ccccc6n2c5c31)CNC4=O` [lestaurtinib] the “resistance or sensitivity of variant L983F” value [1] was “resistance” and the “resistance of ruxolitinib-resistant variants” value [2] was “cross-resistance”.

For `N#CC[C@H](C1CCCC1)n1cc(-c2ncnc3[nH]ccc23)cn1` [ruxolitinib], the “effect on transplanted cells (leukemic burden)” value [24] is given as “eradicated”, the Cmax [25] is given as 4.4 µM and the “effect on transplanted cells (leukemic burden)” value [26] is given as “ineffective”.
